From article PMC6727405, “Variation in the metabolites and α-glucosidase inhibitory activity of Cosmos caudatus at different growth stages” (BMC Complementary and Alternative Medicine, 2019)

Target: T1, α-glucosidase type 1 from S. cerevisiae (Sigma G5003)
T1 construct: gene MAL12; commercial enzyme preparation from yeast (Sigma-Aldrich)
Assay: 4-nitrophenyl alpha-D-glucopyranoside hydrolysis, absorbance […] nm
Format: biochemical, Saccharomyces cerevisiae
Conditions: PNPG substrate; phosphate buffer pH 6.5; room temperature; 5 min preincubation; positive control

## O=c1c(O)c(-c2ccc(O)c(O)c2)oc2cc(O)cc(O)c12 [Quercetin]
  α-glucosidase inhibitory activity, IC50 (μg mL^- 1): 110.50 ± 4.30 µg/mL
